Measurements from patent publication US20070254319A1, “IDENTIFICATION OF A CONS[…] CANCER STEM CELL” (University of Pittsburgh - Of the Commonwealth System of …, priority 2006, published 2007).

Assays:
[1] = tested on: K562-G185 cells (ABCB1/MDR1 transfectant); test: Hoechst 33342 efflux (side population, SP) in MDR1-transfected K562-G185 cells with and without inhibitors; assay type: cell-based, human; settings: CD117- cells; Ho33342 8 microM and R123 0.13 microM, 90 min
Method: (§1) Cells were stained with anti-CD117 and incubated for 90 min in the presence of Ho33342 (8 microM, ˜5 microg/mL) and R123 (0.13 microM) with and without inhibitors. PI was added immediately before acquisition on the MoFlo flow cytometer in order to eliminate dead cells. Events were gated to exclude cell clusters and dead cells. The side population (SP) phenotype (blue gate) and R123 excluding cells (single parameter histogram left of the dashed line) were measured on CD117− (top panels) and CD117+ (bottom panels).
(§2) Here, the SP cells (within the blue gate in the left plots) is color evented blue, whereas SP negative cells are shown in gray.
(§3) Simultaneous measurement of R123 and Ho33342 dye efflux. […] Two cell lines were used, the parent line K562, which has a small subpopulation of CD117+ cells which constitutively express ABCG2 (BCRP1), and the ABCB1 (MDR1) transfectant line K562-G185 (39) (FIG. 9). G185 cells were maintained in vincristine (100 ng/mL) to select against ABCB1 negative cells.

[2] = tested on: parental K562 cells (native ABCG2); test: Hoechst 33342 efflux (side population, SP) in parental K562 cells with and without inhibitors; assay type: cell-based, human
Method: as §1, §2, §3

[3] = tested on: ABCG2 (BCRP); test: Hoechst 33342 / R123 efflux (SP phenotype) in freshly isolated therapy naive non-small cell lung tumor cells; assay type: cell-based; settings: human, probe Hoechst 33342; inhibitor 10 microM; coincubation with Hoechst 33342 8 microM and R123 0.13 microM, 90 minutes at 37° C.
Method: Antibody stained suspended tumor cells were incubated simultaneously with the ABCG2/ABCB1 substrate Hoechst 33342 (8 microM) plus the ABCB1 substrate rhodamine 123 (R123, 0.13 microM) for 90 minutes at 37° C. Propidium iodide (PI, 10 microg/mL) was added immediately before sample acquisition. All events were gated on PI excluding (live), non-hematopoietic singlets. Five million events were collected. This basic experimental design has been repeated, with modifications, on 10 samples from untreated breast, ovarian, gastric and lung tumors with consistent results.
SP (top panels) and non-SP cells (bottom panels) were further characterized: A proportion of SP cells also excluded the ABCB1 substrate dye R123. These accounted for 29% of the SP cells (color-evented red in the dot plots) and accounted for almost all of the cells with low forward and side light scatter consistent with a resting morphology (FIG. 5). […] A significant proportion of both SP and non-SP cells expressed CD90, often in combination with epithelial specific antigen, HEA.

COc1ccc2c3c([nH]c2c1)[C@H](C=C(C)C)N1C(=O)[C@@H]2CCCN2C(=O)[C@@H]1C3 [fumitremorgin]
effect on the side population (SP), in words [1]: not affected
effect on Ho33342 transport, in words ([2]; CD117+ population of parental K562 cells): abrogates
inhibition of the native SP phenotype, in words ([2]; CD117- cells, native SP 1.42% of cells, Ho33342 8 microM, 90 min): equally inhibited
inhibition at 90 min, 10 microM [3]: 75%

CC[C@]1(O)C[C@H]2CN(CCc3c([nH]c4ccccc34)[C@@](C(=O)OC)(c3cc4c(cc3OC)N(C=O)[C@H]3[C@@](O)(C(=O)OC)[C@H](OC(C)=O)[C@]5(CC)C=CCN6CC[C@]43[C@@H]65)C2)C1 [vincristine]
effect on the side population (SP), in words [1]: not affected
